Like-named read-outs stand apart in the source and are kept apart here.
Tests used:
[1] = molecular target: T1, β-Glucuronidase from E. coli (Escherichia coli, UniProt P05804); experiment: β-Glucuronidase inhibitory activity assay with PNPG substrate; settings: for Inhibition of Compounds on β-glucuronidase, Inhibition at 100 μM (%): compound at 100 μM; for inhibition at 100 µM: read-out: Inhibition of Compounds on β-glucuronidase, Inhibition at 100 μM (%)
[2] = molecular target: T1, β-Glucuronidase from E. coli; experiment: Inhibition kinetic analysis with β-glucuronidase (Lineweaver–Burk and Dixon plots); format: biochemical; settings: for Ki: determined by Dixon plots; for Inhibition Type: determined by Lineweaver–Burk plots
Method: To identify the inhibition mode of the active compounds on β-glucuronidase, two enzyme kinetic methodologies, the Lineweaver-Burk and Dixon methods, were used. The mode of β-glucuronidase inhibition was determined using a Lineweaver–Burk plot (or double reciprocal plot) at various concentrations of the substrate in the absence or presence of the test compound (concentrations: 0, 10, 20, 40, 60, and 80 µM for 13 and 15; 0, 7.5, 15, 30, 60, and 80 µM for 14; 0, 5, 10, 20, 40, and 60 µM for 26 and 27; and 0, 2.5, 5, 10, 20, and 40 µM for 28). The enzymatic reactions at various concentrations of the test compounds were evaluated by monitoring the effects of different substrate concentrations using Dixon plots (or single reciprocal plots) (0.25, 0.5, 1, and 2.5 mM). Ki values were determined by analyzing the Dixon plot, where the x-axis value was taken as Ki.

[3] = tested on: B16F10 murine melanoma cells; design: method as in doi:10.1016/j.phytol.2017.05.022; settings: read-out: inhibition of melanin production IC50; cited from earlier work
PTP1B enzyme = tested on: PTP1B enzyme; design: method as in PMID 34416263; settings: in words; cited from earlier work
[4] = tested on: neuraminidase of influenza virus H5N1; settings: read-out: inhibitory effect on neuraminidase IC50; cited from earlier work
[5] = PNPG substrate, mean ± SEM of three independent experiments
[6] = read-out: Inhibition of Compounds on β-glucuronidase, IC50, PNPG substrate, mean ± SEM of three independent experiments

T1 sequence (P05804 whole entry): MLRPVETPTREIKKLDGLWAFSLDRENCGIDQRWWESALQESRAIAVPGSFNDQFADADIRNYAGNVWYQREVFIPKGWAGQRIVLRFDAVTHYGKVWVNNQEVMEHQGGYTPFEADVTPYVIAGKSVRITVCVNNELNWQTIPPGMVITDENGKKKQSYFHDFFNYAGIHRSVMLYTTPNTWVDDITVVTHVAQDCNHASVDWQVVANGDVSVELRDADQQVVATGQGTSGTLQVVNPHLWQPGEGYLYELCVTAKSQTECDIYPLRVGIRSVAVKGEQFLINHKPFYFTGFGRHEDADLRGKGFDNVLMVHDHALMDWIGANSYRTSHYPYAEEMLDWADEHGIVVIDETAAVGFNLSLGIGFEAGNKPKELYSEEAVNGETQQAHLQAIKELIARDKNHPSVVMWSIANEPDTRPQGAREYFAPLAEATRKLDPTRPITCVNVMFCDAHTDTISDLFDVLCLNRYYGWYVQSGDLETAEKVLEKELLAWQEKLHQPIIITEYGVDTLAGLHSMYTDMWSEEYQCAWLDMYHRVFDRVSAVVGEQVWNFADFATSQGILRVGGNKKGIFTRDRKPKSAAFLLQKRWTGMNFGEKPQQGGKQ

Row | Compound | IC50 [1] [µM] | inhibition at 100 µM [1] [%] | also measured
1 | 1-(2,4,6-trihydroxy-3-methylphenyl)propanone [Compound 7] | – | – | Inhibition of Compounds on β-glucuronidase, Inhibition at 100 μM (%) [1, 5]: 26.7 ± 1.5%; IC50 [1, 6]: > 100 µM
2 | 1-(2, 4, 6-trihydroxy-3-methylphenyl) butanone [Compound 8] | – | – | Inhibition of Compounds on β-glucuronidase, Inhibition at 100 μM (%) [1, 5]: 24.9 ± 5.5%; IC50 [1, 6]: > 100 µM
3 | CC(=O)c1c(O)cc(O)cc1O [Compound 1, 2,4,6-trihydroxy-acetophenone] | > 100 | 11.6 ± 3.9 | –
4 | CCC(=O)c1c(O)cc(O)cc1O [Compound 2, 1-(2,4,6-trihydroxy-phenyl)-propan-1-one] | > 100 | 24.4 ± 0.2 | –
5 | CCCC(=O)c1c(O)cc(O)cc1O [Compound 3, phlorobutyrophenone] | > 100 | 22 ± 2.1 | –
6 | CC(=O)c1c(O)cc(O)c(C(C)=O)c1O [Compound 4, 5-acetyl-2,4,6-trihydroxyacetophenone] | > 100 | 22.1 ± 2.4 | –
7 | CCC(=O)c1c(O)cc(O)c(C(=O)CC)c1O [Compound 5, 1,3-(2,4,6-trihydroxyphenyl)dipropanone] | > 100 | 27.1 ± 0.4 | –
8 | CCCC(=O)c1c(O)cc(O)c(C(=O)CCC)c1O [Compound 6, 1,3-(2,4,6-trihydroxyphenyl)dibutanone] | > 100 | 33.7 ± 2.3 | –
9 | CCC(=O)c1c(O)c(C(=O)CC)c(O)c(C(=O)CC)c1O [Compound 10, tripropionylphloroglucinol] | > 100 | 41.4 ± 1.7 | –
10 | CCCC(=O)c1c(O)c(C(=O)CCC)c(O)c(C(=O)CCC)c1O [Compound 11, tributyrylphloroglucinol] | 43 ± 2.9 | 87.3 ± 3.4 | –
11 | CCCC(=O)c1c(O)cc(O)c(-c2c(O)cc(O)c(C(=O)CCC)c2O)c1O [Compound 12, bis-phlorobutyrophenone] | > 100 | 34.1 ± 0.5 | –
12 | CCCC(=O)c1c(O)cc(O)c(Cc2c(O)cc(O)c(C(=O)CC)c2O)c1O [Compound 13, dryopidin PB] | 18.1 ± 1.5 | 93.7 ± 0.3 | Ki [2]: 6.3 µM; Inhibition Type [2]: Competitive
13 | CCCC(=O)c1c(O)cc(O)c(Cc2c(O)cc(O)c(C(=O)CCC)c2O)c1O [Compound 14, methylene-bis-phlorobutyrophenone] | 14.4 ± 0.6 | 97.1 ± 0.7 | Ki [2]: 4.3 µM; Inhibition Type [2]: Competitive
14 | CCCC(=O)c1c(O)cc(O)c(Cc2c(O)c(C)c(O)c(C(=O)CCC)c2O)c1O [Compound 15, araspidin BB] | 17 ± 2.5 | 89.1 ± 0.3 | Ki [2]: 25.8 µM; Inhibition Type [2]: Competitive
15 | CCC(=O)c1c(O)cc(O)c(CC2=C(O)C(C)(C)C(O)=C(C(C)=O)C2=O)c1O [Compound 16, norflavaspidic acid AP] | 64.4 ± 3.5 | 68.3 ± 0.2 | –
16 | CCCC(=O)c1c(O)cc(O)c(CC2=C(O)C(C)(C)C(O)=C(C(C)=O)C2=O)c1O [Compound 17, norflavaspidic acid AB] | 67 ± 1.3 | 65.1 ± 0.1 | –
17 | CCCC(=O)c1c(O)cc(O)c(CC2=C(O)C(C)(C)C(O)=C(C(=O)CC)C2=O)c1O [Compound 18, norflavaspidic acid PB] | > 100 | 42.2 ± 0.1 | IC50 [3]: 35.7 µM
18 | CCCC(=O)C1=C(O)C(C)(C)C(O)=C(Cc2c(O)cc(O)c(C(=O)CCC)c2O)C1=O [Compound 19, norflavaspidic acid BB] | > 100 | 41 ± 1.4 | –
19 | CC(=O)C1=C(O)C(C)(C)C(O)=C(Cc2c(O)c(C)c(O)c(C(C)=O)c2O)C1=O [Compound 20, flavaspidic acid AA] | 75.7 ± 1.2 | 76.1 ± 3.4 | –
20 | CCC(=O)c1c(O)c(C)c(O)c(CC2=C(O)C(C)(C)C(O)=C(C(C)=O)C2=O)c1O [Compound 21, flavaspidic acid AP] | > 100 | 47.9 ± 4.7 | –
21 | CCCC(=O)c1c(O)c(C)c(O)c(CC2=C(O)C(C)(C)C(O)=C(C(C)=O)C2=O)c1O [Compound 22, flavaspidic acid AB] | > 100 | 48.7 ± 4.8 | –
22 | CCCC(=O)c1c(O)c(C)c(O)c(CC2=C(O)C(C)(C)C(O)=C(C(=O)CC)C2=O)c1O [Compound 23, flavaspidic acid PB] | 76.5 ± 1.5 | 73.5 ± 0.7 | IC50 [3]: 38.9 µM
23 | CCCC(=O)c1c(O)c(CC2=C(O)C(C)(C)C(O)=C(C(C)=O)C2=O)c(O)c(C2CCCN2C(=N)N)c1O (centres unmarked) [Compound 25, dryopcrassirine AB] | > 100 | 30.7 ± 1.7 | –
24 | CCCC(=O)c1c(O)cc(O)c(Cc2c(O)c(CC3=C(O)C(C)(C)C(O)=C(C(C)=O)C3=O)c(O)c(C(=O)CCC)c2O)c1O [Compound 26, nortrisflavaspidic acid ABB] | 8 ± 1.8 | 98.1 ± 2.5 | activity toward the PTP1B enzyme (PTP1B enzyme): significant activity; IC50 [4]: 51.5 µM; Ki [2]: 7.5 µM; Inhibition Type [2]: Competitive
25 | CCCC(=O)c1c(O)c(C)c(O)c(Cc2c(O)c(CC3=C(O)C(C)(C)C(O)=C(C(C)=O)C3=O)c(O)c(C(=O)CCC)c2O)c1O [Compound 27, trisflavaspidic acid ABB] | 7.1 ± 2.6 | 101.2 ± 0.6 | activity toward the PTP1B enzyme (PTP1B enzyme): significant activity; Ki [2]: 0.5 µM; Inhibition Type [2]: Competitive
26 | CCCC(=O)C1=C(O)C(C)(C)C(O)=C(Cc2c(O)c(Cc3c(O)c(C)c(O)c(C(=O)CCC)c3O)c(O)c(C(=O)CCC)c2O)C1=O [Compound 28, trisflavaspidic acid BBB] | 5.6 ± 1.1 | 106 ± 3.4 | activity toward the PTP1B enzyme (PTP1B enzyme): significant activity; Ki [2]: 2.8 µM; Inhibition Type [2]: Competitive
27 | CCCC(=O)c1c(O)c(CC2=C(O)C(C)(C)C(O)=C(C(C)=O)C2=O)c(O)c(CC2=C(O)C(C)(C)C(O)=C(C(C)=O)C2=O)c1O [Compound 29, filixic acid ABA] | 90.5 ± 2.7 | 53.4 ± 2.3 | IC50 [4]: 29.6 µM
28 | CCCC(=O)c1c(O)c(CC2=C(O)C(C)(C)C(O)=C(C(C)=O)C2=O)c(O)c(Cc2c(O)c(CC3=C(O)C(C)(C)C(O)=C(C(C)=O)C3=O)c(O)c(C(=O)CCC)c2O)c1O [Compound 30, dryocrassin ABBA] | 94.9 ± 2.5 | 51.8 ± 2.7 | –
29 | O=C(O)[C@@H](O)[C@H]1OC(=O)[C@H](O)[C@H]1O [DSA, D-saccharic acid 1,4-lactone, reference compound] | 23.4 ± 1.5 | 79 ± 0.3 | –
